Where two headings read alike, the source gives them in different places.
How the values were obtained:
[1] = test system: MES-SA cells; assay: PrestoBlue viability assay, MES-SA cells; conditions: Homo sapiens, MES-SA
[2] = test system: A431-B1 cells; assay: PrestoBlue viability assay, A431-B1 (A431-ABCB1) cells
[3] = test system: A431 cells; assay: PrestoBlue viability assay, A431 cells
[4] = test system: MES-SA/Dx5 cells; assay: PrestoBlue viability assay, MES-SA/Dx5 cells (MDR, P-gp positive); conditions: for IC50: Homo sapiens; for SR_TQ: selectivity ratio MES-SA vs MES-SA/Dx5, with TQ; for SR: selectivity ratio MES-SA vs MES-SA/Dx5, without TQ
[5] = 72 h, read-out: IC50 / μM MES-SA, absence of TQ, 72 h incubation
[6] = read-out: pIC50 value MES-SA+TQ, MES-SA cells, with TQ (converted)
[7] = read-out: pIC50 value MES-SA, MES-SA cells, without TQ (converted)
[8] = read-out: pIC50 A431-B1, SARM figure (converted)
[9] = Homo sapiens, A-431, read-out: pIC50 A431, SARM figure (converted)
[10] = MES-SA/Dx5, 72 h, read-out: IC50 / μM MES-SA/Dx5, absence of TQ, 72 h incubation
[11] = MES-SA/Dx5, read-out: pIC50 value MES-SA/Dx5 + TQ, MES-SA/Dx5 cells, with TQ (converted)
[12] = MES-SA/Dx5, read-out: pIC50 value MES-SA/Dx5, MES-SA/Dx5 cells, without TQ (converted)
[13] = read-out: IC50 / μM MES-SA (values in parentheses), presence of 1 μM P-gp inhibitor tariquidar (TQ)
[14] = read-out: pIC50 MES-SA_TQ, presence of 1 μM TQ (converted), SARM figure
[15] = 72 h, read-out: IC50 / µM A431-B1, 72 h incubation
[16] = Homo sapiens, A-431, 72 h, read-out: IC50 / µM A431, 72 h incubation
[17] = MES-SA/Dx5, read-out: IC50 / μM MES-SA/Dx5 (values in parentheses), presence of 1 μM P-gp inhibitor tariquidar (TQ)
[18] = read-out: IC50 / µM A431-B1, 72 h incubation
[19] = read-out: IC50 / µM A431, 72 h incubation

Structure (SMILES) | IC50 [1, 5] [µM] | IC50 [1, 6] [µM] | IC50 [1, 7] [µM] | IC50 [2, 8] [µM] | IC50 [3, 9] [µM] | IC50 [4, 10] [µM] | IC50 [4, 11] [µM] | IC50 [4, 12] [µM] | SR_TQ [4] | SR [4] | IC50 [1, 13] [µM] | IC50 [2, 15] [µM] | IC50 [3, 16] [µM] | IC50 [4, 17] [µM] | further results
Oc1c(C(c2ccccn2)N2CCCCC2)cc(Cl)c2cccnc12 (stereo not shown) [Compound 98] | 31.9 ± 1.55 | 33.1 | 31.6 | 24 | 50.1 | 16.6 ± 0.88 | 13.5 | 16.6 | 2.45 | 1.92 | – | – | – | – | –
Oc1c(CN2CCN(c3ccccn3)CC2)cc(Cl)c2cccnc12 [Compound 43] | 2.19 ± 0.12 | 2.19 | 2.19 | 7.59 | 9.33 | 0.33 ± 0.05 | – | 0.331 | 1.78 | 6.55 | 2.19 ± 0.17 | 8.06 ± 2.89 | 9.41 ± 1.41 | 1.23 ± 0.05 | IC50 ([1]; read-out: pIC50 MES-SA, absence of TQ (converted), SARM figure): 2.19 µM; IC50 [1, 14]: 2.19 µM
Oc1c(CN2CCOCC2)cc(Br)c2cccnc12 [Compound 30] | 1.13 ± 0.13 | 1.32 | 1.12 | 2.88 | 8.91 | 0.46 ± 0.04 | 0.851 | 0.457 | 1.54 | 2.46 | 1.32 ± 0.01 | 2.89 ± 0.25 | 9.3 ± 3.05 | 0.85 ± 0.06 | –
CCOCc1cc(CN2CCC(C)CC2)c(O)c2ncccc12 [Compound 27] | 4.09 ± 0.42 | 4.47 | 4.07 | 2.24 | 11 | 0.47 ± 0.05 | 3.02 | 0.468 | 1.47 | 8.71 | 4.48 ± 0.37 | 2.37 ± 0.87 | 11.8 ± 4.34 | 3.05 ± 0.47 | –
CCN(CC)Cc1ccc2cccnc2c1O [Compound 1] | 7.35 ± 1.28 | 5.13 | 7.24 | 5.01 | 13.5 | 1.64 ± 0.24 | 3.02 | 1.62 | 1.69 | 4.49 | 5.15 | 4.51 ± 0.73 | 14.8 ± 0.41 | 3.04 | IC50 [2, 18]: 4.99 ± 0.52 µM; IC50 [3, 19]: 13.4 ± 0.18 µM
Oc1c(CN2CCCC2)cc(Cl)c2cccnc12 [Compound 15] | 3.46 ± 0.51 | 4.27 | 3.39 | 1.95 | 7.41 | 0.3 ± 0.06 | 3.16 | 0.295 | 1.35 | 11.53 | 4.34 | 1.97 ± 0.25 | 7.45 ± 0.15 | 3.21 | –
OCCN(CCO)Cc1cc(Cl)c2cccnc2c1O [Compound 6] | 31.2 ± 4.04 | 25.1 | 30.9 | – | – | 5.28 ± 1.28 | – | 5.13 | 1.64 | 5.91 | 25.3 | 20.5 ± 0.95 | 73.6 ± 0.75 | 15.4 | SR (A431 / A431-B1) ([2]; fraction of IC50 in P-gp negative vs positive cells): 3.60; SR (MES-SA_TQ / Dx5_TQ) (values in parentheses) ([4]; fraction of IC50 in P-gp negative vs positive cells, presence of 1 μM TQ): 1.64
CCN(CC)Cc1cc(Cl)c2cccnc2c1O [Compound 5] | 2.97 ± 0.33 | 3.24 | 2.95 | 1.48 | 9.33 | 0.35 ± 0.06 | 1.82 | 0.347 | 1.78 | 8.44 | 3.25 | 1.58 ± 1.11 | 9.29 ± 1.55 | 1.82 | IC50 [2, 18]: 1.52 ± 0.32 µM; IC50 [3, 19]: 10 ± 4.2 µM
CCCOCc1cc(CN2CCCCC2)c(O)c2ncccc12 [Compound 23] | 3.72 ± 0.25 | 3.55 | 3.72 | 1.45 | 6.76 | 0.34 ± 0.02 | 2.4 | 0.339 | 1.48 | 10.97 | 3.55 ± 0.08 | 1.53 ± 0.55 | 6.72 ± 0.57 | 2.4 ± 0.04 | IC50 [1, 14]: 3.8 µM; IC50 ([4]; MES-SA/Dx5, read-out: pIC50 Dx5_TQ, presence of 1 μM TQ (converted), SARM figure): 2.75 µM
Oc1c(C(c2ccccn2)N2CCCC2)ccc2cccnc12 (stereo not shown) [Compound 84] | 17.2 ± 1.86 | – | 17 | 9.55 | 41.7 | 10.2 ± 0.6 | – | 10.2 | – | 1.69 | – | – | – | – | –
Oc1c(CN2CCCC2)ccc2cccnc12 [Compound 2] | 4.64 ± 0.82 | 3.98 | 4.57 | 3.16 | 16.6 | 1.47 ± 0.25 | 2.82 | 1.45 | 1.41 | 3.16 | 3.98 | – | 18.2 ± 1.02 | 2.82 | IC50 [3, 19]: 17.1 ± 4.65 µM
COCc1cc(CN2CCC(C)CC2)c(O)c2ncccc12 [Compound 26] | 6.2 ± 0.66 | 6.46 | 6.17 | 2.29 | 13.8 | 0.58 ± 0.05 | 4.68 | 0.575 | 1.38 | 10.73 | 6.47 ± 0.41 | 2.29 ± 0.28 | 14.5 ± 3.84 | 4.68 ± 0.16 | –
CCOC(=O)C1CCN(Cc2cc(Cl)c3cccnc3c2O)CC1 [Compound 49] | 1.78 ± 0.12 | 1.7 | 1.78 | 2 | 8.13 | 0.18 ± 0.03 | 0.977 | 0.178 | 1.73 | 9.91 | 1.7 | 1.99 ± 0.25 | 8.57 ± 2.94 | 0.98 | –
CC(=O)Nc1cc(CN2CCCCC2)c(O)c2ncccc12 [Compound 11] | 12.4 ± 1.67 | – | 12.3 | – | – | 19.4 ± 2.33 | – | 19.1 | – | 0.64 | – | 58.2 ± 0.65 | > 100 | – | –

— publication PMC9189845, “Structure–Activity Relationships of 8-Hydroxyquinoline-Derived Mannich Bases with Tertiary Amines Targeting Multidrug-Resistant Cancer” (Journal of Medicinal Chemistry, 2022)
